Laboratory results reported in patent US9192569B2, “Formulations for infusion of type B lantibiotics” (Novacta Biosystems Limited, priority 2010, dated 2015).

Assays:
[1] = system: Methicillin Resistant Staphylococcus aureus (MRSA, ATCC 33591); assay: Neutropaenic mouse thigh infection model, further experiment; assay type: in vivo, mice; conditions: IV 2 and 14 h after infection; 2.5-50 mg/Kg; thigh at 26 h
Description: In a further experiment groups of 6 male ICR mice weighing 24±2 g were used. Test animals were immunosuppressed by 2 intraperitoneal injections of cyclophosphamide, the first at 150 mg/Kg 4 days before infection (day-4) and the second at 100 mg/Kg 1 day before infection (day-1). On day 0, individual animals were inoculated intramuscularly (IM) into the right thigh of test animals with 1.5×10^5 CFU/mouse of Methicillin Resistant Staphylococcus aureus (MRSA, ATCC 33591) suspended in 100 μL of sterile PBS, pH 7.4. Vehicle and test substances were administered intravenously (IV) at a dose volume of 8 mL/Kg, 2 and 14 hours after thigh infection. Example 1 was dissolved in 5% dextrose/1 mM potassium phosphate, pH 5.0 and administered at doses of 2.5, 5, 10, 15, 25 and 50 mg/Kg. At 26 hours after inoculation, muscle of the right thigh of each test mouse was harvested. From an additional group with no treatment, muscle of the right thigh was harvested at 2 hours after inoculation for the basal CFU determination. The removed muscle tissues were then homogenized in 3-4 mL of PBS, pH 7.4 with a ceramic mortar. Homogenates of 0.1 mL were used for serial 10-fold dilutions and plated on Mueller Hinton broth in 1.5% Bacto agar for CFU determination.

[2] = system: Staphylococcus aureus methicillin resistant ATCC 33591; assay: Mouse bacteraemia model, SC dosing; assay type: in vivo, mice
Description: In Vivo Efficacy of Compounds in a Mouse Bacteraemia Model
Groups of 6 male CD-1 (Crl.) derived mice weighing 24±2 g were used. Mice were inoculated intraperitoneally (IP) with an LD90-100 of Staphylococcus aureus methicillin resistant ATCC 33591 (1.1×10^7CFU/mouse) in 0.5 mL of BHI broth containing 5% mucin. Example 1 and vancomycin were dissolved in 15% HPbetaCD/4.4% glucose/0.5 mM KH2PO4, pH 5.0 and doses of 1, 3, 5, 10 and 20 mg/Kg were administered subcutaneously (SC) to test animals at 0, 2 and 24 hour(s) after bacteria challenge. The dosing volume was 5 mL/Kg. Mortality was recorded once daily for 7 days. The ED50 for each compound was determined by nonlinear regression.

[3] = system: Staphylococcus aureus methicillin resistant ATCC 33591; assay: Mouse bacteraemia model, second experiment, IV dosing; assay type: in vivo, mice; conditions: for number of deaths: 7 days, groups of 6; for survival of mice after 7 days: 1, 3, 5 and 10 mg/kg IV
Description: In a second experiment Groups of 6 male CD-1 (Crl.) derived mice weighing 24±2 g were used. Mice were inoculated intraperitoneally (IP) with an LD90-100 of Staphylococcus aureus methicillin resistant ATCC 33591 (1.35×10^8 CFU/mouse) in 0.5 mL of BHI broth containing 5% mucin. Example 1 was dissolved in 5% dextrose/1.5 mM potassium phosphate, pH 5.0 and doses of 1, 3, 5 and 10 mg/Kg were administered intravenously (IV) to test animals at 1 and 13 hour(s) after bacteria challenge. The dosing volume was 5 mL/Kg. Mortality was recorded once daily for 7 days.

[4] = Laser beam light scattering through cuvette (FIG. 1); assay type: physicochemical; conditions: naked eye
Text: FIG. 1 is a series of photographs of two control formulations (glucose and vancomycin) and a formulation of Example 1, after a laser beam has been shone through a cuvette containing the same. […] In each case the presence or absence of the beam in the samples is clearly visible to the naked eye.
The colloid formulation according to the present invention is distinguished from a solution by the fact that a polarised beam of light, such as from laser, shone through the formulation, for example held in a 1 cm cuvette, causes the formulation to scatter light visible to the naked eye therefrom, for example in the form of a beam. Whilst not wishing to be bound by theory, this luminous path may be known as a Tyndall beam or Rayleigh scatter, both of which are a result of the scattering of the light by the particles in the colloid.

[5] = system: Methicillin Resistant Staphylococcus aureus (MRSA, ATCC 33591); assay: Neutropaenic mouse thigh infection model; assay type: in vivo, mice; conditions: for antimicrobial effect: 5, 10, 20, 30 and 40 mg/Kg x2 IV
Description: Efficacy of Compounds in a Neutropaenic Mouse Thigh Infection Model.
In vivo efficacy of compounds of the present invention in the treatment of bacterial tissue infections was evaluated using a neutropaenic mouse thigh model.
Groups of 6 male ICR mice weighing 24±2 g were used. Test animals were immuno-suppressed by 2 intraperitoneal injections of cyclophosphamide, the first at 150 mg/Kg 4 days before infection (day-4) and the second at 100 mg/Kg 1 day before infection (day−1). On day 0, individual animals were inoculated intramuscularly (IM) into the right thigh of test animals with 1.15×10^5 CFU/mouse of Methicillin Resistant Staphylococcus aureus (MRSA, ATCC 33591) suspended in 100 μL of sterile PBS, pH 7.4. Vehicle and test substances were administered intravenously (IV) at a dose volume of 6 mL/Kg, 2 and 14 hours after thigh infection. Example 1 and vancomycin were dissolved in 15% hydroxypropyl-beta-cyclodextrin/4.4% glucose/1.5 mM potassium phosphate buffer, pH 7.0 and administered at doses of 5, 10, 20, 30 and 40 mg/Kg. At 26 hours after inoculation, muscle of the right thigh of each test mouse was harvested. From an additional group with no treatment, muscle of the right thigh was harvested at 2 hours after inoculation for the basal CFU determination. The removed muscle tissues were then homogenized in 3-4 mL of PBS, pH 7.4 with a ceramic mortar. Homogenates of 0.1 mL were used for serial 10-fold dilutions and plated on Mueller Hinton broth in 1.5% Bacto agar for CFU determination.

[6] = In vivo plasma half-life in mice; conditions: mouse, IV, 9.3 mL/Kg of 3.2 mg/mL solution of Example 1, LC-MS
Description: In vivo Plasma Half-life of Compounds of the Present Invention in Mice.
The in vivo half-life of Compound 1 in mice was determined by measurement of its plasma concentrations at various time points following IV dosing. 18 male CD-1 mice aged 7-9 weeks were dosed IV with a 9.3 mL/Kg dose of a 3.2 mg/mL solution of Example 1 in 15% hydroxyl-propyl-beta-cyclodextrin/4.4% glucose/1 mM potassium phosphate (pH=7.6). Plasma samples were obtained at 10, 20, 30, 60, 120 and 240 min post-dose, sampling from 3 animals at each time point. Concentrations of Compound 1 in plasma were determined by LC-MS quantification.

Compound: CN[C@H](CC(C)C)C(=O)N[C@H]1C(=O)N[C@@H](CC(N)=O)C(=O)N[C@H]2C(=O)N[C@H]3C(=O)N[C@H](C(=O)N[C@H](C(=O)O)c4cc(O)cc(O)c4-c4cc3ccc4O)[C@H](O)c3ccc(c(Cl)c3)Oc3cc2cc(c3O[C@@H]2O[C@H](CO)[C@@H](O)[C@H](O)[C@H]2O[C@H]2C[C@](C)(N)[C@H](O)[C@H](C)O2)Oc2ccc(cc2Cl)[C@H]1O [vancomycin, reference compound]
- bacterial counts in the thigh tissue (FIG. 3) [1]: dose dependent reduction in the bacterial counts
- antimicrobial effect against S. aureus (MRSA) in mice ([2]; 3, 5, 10 and 20 mg/Kg x3, SC): significant antimicrobial effect
- ED50 ([2]; Staphylococcus aureus, ATCC33591, SC at 0, 2 and 24 h after challenge, mortality over 7 days, nonlinear regression, read-out: estimated ED50): 3 mg/kg
- number of deaths ([3]; 1 mg/kg IV at 1 and 13 h): 5
- number of deaths ([3]; 3 mg/kg IV at 1 and 13 h): 3
- number of deaths ([3]; 5 mg/kg IV at 1 and 13 h): 1
- number of deaths ([3]; 10 mg/kg IV at 1 and 13 h): 0
- survival of mice after 7 days [3]: dose-dependent increase in survival
- visibility of laser beam through formulation (light scattering) [4]: the beam is not visible
- reductions of CFU/g ([5]; 30 mg/kg and above, x2 IV, thigh at 26 h): > 100 fold
- antimicrobial effect [5]: significant antimicrobial effect
- reduction of CFU/g, highest attained ([5]; doses 5-40 mg/Kg x2 IV, thigh at 26 h): ≤ 1,000 fold

Compound: CC[C@H](C)[C@@H]1NC(=O)[C@@H]2NC(=O)[C@H](CC(C)C)NC(=O)[C@H](NC(=O)[C@@H]3CSC[C@@H](N)C(=O)N[C@@H](CO)C(=O)NCC(=O)N[C@@H](Cc4c[nH]c5ccccc45)C(=O)N[C@@H](C(C)C)C(=O)N3)[C@H](C)SC[C@H](NC(=O)[C@H](CCC(=O)O)NC1=O)C(=O)NCC(=O)N[C@H]1C(=O)N[C@@H](CC(C)C)C(=O)N[C@@H](C(C)C)C(=O)N[C@@H](CS[C@H]2C)C(=O)N[C@@H](C)C(=O)N[C@H](C(=O)NCc2cc(Cl)cc(Cl)c2)CS[C@H]1C [Compound 1, Deoxyactagardine B (3,5-dichlorobenzylamine)monocarboxamide]
- half-life [6]: ~120 min

Compound: Deoxyactagardine B (3,5-dichlorobenzylamine)monocarboxamide [Example 1]
- bacterial counts in the thigh tissue (FIG. 3) [1]: dose dependent reduction in the bacterial counts
- survival rate ([2]; 3 mg/Kg, SC): 100%
- antimicrobial effect against S. aureus (MRSA) in mice ([2]; 3, 5, 10 and 20 mg/Kg x3, SC): significant antimicrobial effect
- increase in survival rate ([2]; 3, 5, 10 and 20 mg/Kg x3, SC): at least 50%
- estimated ED50 ([2]; SC at 0, 2 and 24 h after challenge, mortality over 7 days, nonlinear regression): 1.07 mg/kg
- number of deaths ([3]; 1 mg/kg IV at 1 and 13 h): 5
- number of deaths ([3]; 3 mg/kg IV at 1 and 13 h): 4
- number of deaths ([3]; 5 mg/kg IV at 1 and 13 h): 1
- number of deaths ([3]; 10 mg/kg IV at 1 and 13 h): 1
- survival of mice after 7 days [3]: dose-dependent increase in survival
- visibility of laser beam through formulation (light scattering) [4]: the beam is visible
- reduction in CFU/g ([5]; 10 mg/kg and above, x2 IV, thigh at 26 h): > 1.000 fold
- antimicrobial effect [5]: significant antimicrobial effect
